Columns and labels:
WT C57Bl6/N mice = assay: open field locomotor activity time-course in mice; format: in vivo; conditions: for duration of locomotor / psychomotor effects: open field time-course, i.p.; for potency, cumulative distance traveled over 60 min post i.p. injection: compared with MPH, cocaine, R-αPVP, R-MDPV and R-pyrovalerone
DAT [1] = molecular target: T1, DAT (Homo sapiens, UniProt Q01959); format: binding; conditions: DAT membranes
DAT [2] = molecular target: T1, DAT; assay: saturation of [3H]DA uptake in presence of inhibitor; format: cell-based; conditions: 1 min uptake; cocaine and R-αPVP 250, 500, 1,000 nM; S-αPVP 5, 10, 20 nM
DAT [3] = molecular target: T1, DAT; assay: electrophysiological examination of DAT-mediated currents; format: cell-based; conditions: HEK293 cells expressing DAT, whole-cell

T1 sequence (Q01959 whole entry): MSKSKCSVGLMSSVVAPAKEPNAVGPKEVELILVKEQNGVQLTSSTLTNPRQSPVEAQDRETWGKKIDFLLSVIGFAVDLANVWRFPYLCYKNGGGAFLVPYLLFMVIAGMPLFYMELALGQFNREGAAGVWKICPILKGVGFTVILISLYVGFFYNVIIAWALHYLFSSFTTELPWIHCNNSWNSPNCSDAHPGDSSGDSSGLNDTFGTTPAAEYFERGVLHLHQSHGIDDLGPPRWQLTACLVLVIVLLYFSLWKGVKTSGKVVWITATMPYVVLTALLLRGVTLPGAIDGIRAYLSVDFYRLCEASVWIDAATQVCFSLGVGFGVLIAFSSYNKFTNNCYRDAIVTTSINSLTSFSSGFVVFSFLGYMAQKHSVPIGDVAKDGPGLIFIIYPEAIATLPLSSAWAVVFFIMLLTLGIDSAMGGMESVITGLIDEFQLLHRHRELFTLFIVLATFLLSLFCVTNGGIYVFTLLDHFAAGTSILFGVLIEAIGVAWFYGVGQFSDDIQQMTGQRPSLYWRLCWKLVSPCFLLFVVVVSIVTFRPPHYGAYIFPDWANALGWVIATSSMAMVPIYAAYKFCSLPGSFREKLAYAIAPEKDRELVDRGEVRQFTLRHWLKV

| SMILES | duration of locomotor / psychomotor effects (WT C57Bl6/N mice) | also measured |
| --- | --- | --- |
| COC(=O)C(c1ccccc1)C1CCCCN1 (stereo not drawn) [MPH, methylphenidate] | much shorter duration of locomotor effects |  |
| CCCC(C(=O)c1ccc2c(c1)OCO2)N1CCCC1 (stereo not drawn) [R-MDPV, 3,4-methylenedioxypyrovalerone] | much shorter duration of locomotor effects |  |
| CCC[C@H](C(=O)c1ccc(C)cc1)N1CCCC1 [R-pyrovalerone, pyrovalerone] | much shorter duration of locomotor effects |  |
| CCCC(C(=O)c1ccc2c(c1)OCO2)N1CCCC1 (stereo not drawn) [S-MDPV, 3,4-methylenedioxypyrovalerone] | prolonged psychomotor effects | potency, cumulative distance traveled over 60 min post i.p. injection (WT C57Bl6/N mice): at least tenfold more potent |
| CCC[C@@H](C(=O)c1ccc(C)cc1)N1CCCC1 [S-pyrovalerone, pyrovalerone] | prolonged psychomotor effects | potency, cumulative distance traveled over 60 min post i.p. injection (WT C57Bl6/N mice): at least tenfold more potent |
| COC(=O)[C@H]1[C@@H](OC(=O)c2ccccc2)C[C@@H]2CC[C@H]1N2C [cocaine] | much shorter duration of locomotor effects | effect on dissociation rate of [3H]WIN35428 (DAT [1]): not affected; effect on Km of DA uptake (DAT [2]): increases Km in dose-dependent manner; effect on Vmax of DA uptake (DAT [2]): does not decrease Vmax |
| NCCc1ccc(O)c(O)c1 [dopamine] |  | DAT-mediated inward currents (substrate activity) (DAT [3]): robust inward currents |
